Source: the NIST ThermoML archive (doi:10.1021/je060271a)

Details: 343.15 K, Liquid, Vibrating tube method

CCCCCCC(=O)OCC(COC(=O)CCCCCC)(COC(=O)CCCCCC)COC(=O)CCCCCC [pentaerythritol tetraheptanoate]
Details | mass density [kg/m3]
476.1 kPa | 940.9
482 kPa | 941
488.1 kPa | 940.8
495.4 kPa | 940.9
502 kPa | 940.9
508.7 kPa | 940.9
517.2 kPa | 941
524.5 kPa | 941
532 kPa | 941.1
540.9 kPa | 940.9
548.4 kPa | 941
556.3 kPa | 941.1
566.3 kPa | 941.1
574.9 kPa | 941
583.8 kPa | 940.9
594.9 kPa | 941
603.8 kPa | 941
613.5 kPa | 941.1
625.7 kPa | 941.1
635.8 kPa | 941.1
646.5 kPa | 941
659.6 kPa | 940.9
671.2 kPa | 941.2
682.7 kPa | 941.2
697.1 kPa | 941.1
710.1 kPa | 941.2
724 kPa | 941.1
738.3 kPa | 941
752.5 kPa | 941.1
767.1 kPa | 941.2
785.4 kPa | 941.2
801.2 kPa | 941.1
817.7 kPa | 941.3
834.7 kPa | 941.2
856.1 kPa | 941.1
874 kPa | 941.2
893.8 kPa | 941.3
917.4 kPa | 941.2
938.8 kPa | 941.3
961.5 kPa | 941.3
984.8 kPa | 941.2
1008.1 kPa | 941.3
1031.5 kPa | 941.3
1061.2 kPa | 941.5
1083.6 kPa | 941.4
1098.2 kPa | 941.3
1114.7 kPa | 941.4
1128.5 kPa | 941.4
1142.9 kPa | 941.4
1159.9 kPa | 941.4
1174.6 kPa | 941.5
1189.9 kPa | 941.6
1208.5 kPa | 941.5
1224.5 kPa | 941.5
1241 kPa | 941.6
1261 kPa | 941.6
1278.5 kPa | 941.6
1296.2 kPa | 941.6
1314.1 kPa | 941.6
1336.3 kPa | 941.6
1355.4 kPa | 941.6
1375.4 kPa | 941.5
1441 kPa | 941.6
1467.4 kPa | 941.7
1489.7 kPa | 941.8
1512.2 kPa | 941.7
1535.7 kPa | 941.8
1564.1 kPa | 941.8
1588.8 kPa | 941.8
1613.6 kPa | 941.8
1644.5 kPa | 941.8
1671.3 kPa | 941.8
1699 kPa | 941.9
1727.1 kPa | 941.8
1762.2 kPa | 941.9
1792.2 kPa | 941.9
1821.9 kPa | 941.8
1847.4 kPa | 942
1859.8 kPa | 941.9
1867.2 kPa | 942
1876.6 kPa | 942
1884.6 kPa | 942.1
1892.9 kPa | 942
1901.2 kPa | 942
1911 kPa | 942.1
1919.1 kPa | 942
1927.8 kPa | 942.1
1937.7 kPa | 942.1
1946.9 kPa | 942.1
1955.4 kPa | 942.1
1964.1 kPa | 942.1
1974.3 kPa | 942.1
1983.3 kPa | 942.1
1992.2 kPa | 942
2001 kPa | 942.1
2012 kPa | 942.2
2021 kPa | 942.2
2030.2 kPa | 942.1
2040.9 kPa | 942.1
2050.5 kPa | 942.1
2059.8 kPa | 942.2
2069.4 kPa | 942.3
2079.3 kPa | 942.2
2090.4 kPa | 942.2
2099.8 kPa | 942.2
2111.2 kPa | 942.2
2121.3 kPa | 942.1
2130.8 kPa | 942.3
2142.6 kPa | 942.2
2152.5 kPa | 942.2
2162.2 kPa | 942.3
2172.5 kPa | 942.2
2184.4 kPa | 942.3
2195 kPa | 942.3
2206.1 kPa | 942.2
2216.5 kPa | 942.3
2228.9 kPa | 942.4
2239.4 kPa | 942.3
2249.8 kPa | 942.2
2260.8 kPa | 942.3
2273.8 kPa | 942.3
2284.7 kPa | 942.3
2295.3 kPa | 942.4
2308.5 kPa | 942.3
2319.6 kPa | 942.4
2330.5 kPa | 942.4
2344.6 kPa | 942.3
2356.7 kPa | 942.4
2368 kPa | 942.5
2379.5 kPa | 942.3
2390.7 kPa | 942.3
2405 kPa | 942.2
2416.9 kPa | 942.4
2428.7 kPa | 942.4
2442.8 kPa | 942.5
2454.7 kPa | 942.4
2466.9 kPa | 942.5
2481.6 kPa | 942.5
2493.9 kPa | 942.5
2506.3 kPa | 942.7
2518.9 kPa | 942.4
2534.2 kPa | 942.4
2546.7 kPa | 942.6
2559.3 kPa | 942.5
2574.1 kPa | 942.5
2587.4 kPa | 942.5
2600.6 kPa | 942.5
2616.2 kPa | 942.5
2629.4 kPa | 942.6
2642.8 kPa | 942.7
2656.5 kPa | 942.6
2672.6 kPa | 942.7
2686.5 kPa | 942.7
2700.9 kPa | 942.7
2714.7 kPa | 942.6
2731.4 kPa | 942.6
2745.6 kPa | 942.6
2759.8 kPa | 942.7
2777 kPa | 942.7
2791.7 kPa | 942.6
2806.1 kPa | 942.7
2823.8 kPa | 942.7
2838.2 kPa | 942.7
2853.3 kPa | 942.7
2871.1 kPa | 942.8
2886.2 kPa | 942.8
2902 kPa | 942.8
2917.3 kPa | 942.9
2935.8 kPa | 942.8
2951.4 kPa | 942.8
2967.4 kPa | 942.8
2986.5 kPa | 942.9
3002.7 kPa | 942.8
3018.9 kPa | 942.9
3038.1 kPa | 942.9
3054.6 kPa | 942.8
3071.2 kPa | 943
3088.2 kPa | 943
3108.3 kPa | 943
3125.5 kPa | 942.9
3142.7 kPa | 943
3163.3 kPa | 942.9
3181 kPa | 943
3198.1 kPa | 943
3219.1 kPa | 943
3237.1 kPa | 943
3254.6 kPa | 943
3276.5 kPa | 943.1
3294.7 kPa | 943.2
3313 kPa | 943.2
3335.1 kPa | 943.2
3354.3 kPa | 943.1
3373.4 kPa | 943.2
3392.3 kPa | 943
3411.7 kPa | 943.3
3435.1 kPa | 943.2
3454.3 kPa | 943.2
3473.9 kPa | 943.2
3497.6 kPa | 943.2
3517.4 kPa | 943.2
3537.3 kPa | 943.3
3561.7 kPa | 943.3
3582.2 kPa | 943.4
3603.3 kPa | 943.2
3625.8 kPa | 943.3
3646.8 kPa | 943.3
3672.1 kPa | 943.3
3693.4 kPa | 943.5
3715.2 kPa | 943.4
3736.7 kPa | 943.4
3763.2 kPa | 943.5
3785.2 kPa | 943.4
3807.8 kPa | 943.5
3834.6 kPa | 943.5
3857.8 kPa | 943.4
3885.7 kPa | 943.5
3909.5 kPa | 943.5
3934.6 kPa | 943.5
3958.1 kPa | 943.7
3981.8 kPa | 943.5
4005.9 kPa | 943.6
4035 kPa | 943.6
4059.1 kPa | 943.7
4088.5 kPa | 943.7
